{
  "source": "ChEMBL document CHEMBL4304811",
  "about": "“Development of a Water-Soluble Indolylmaleimide Derivative IM-93 Showing Dual Inhibition of Ferroptosis and NETosis” (ACS Med Chem Lett, 2019)",
  "key": {"[1]": {"target": "Serine/threonine-protein kinase Nek5 (Homo sapiens) (UniProt Q6P3R8)", "assay": "Binding affinity to wild-type human partial length NEK5 (M1 to M279 residues) expressed in bacterial expression system assessed as residual binding level at 10 uM by Kinomescan method relative to control"}, "[2]": {"target": "Protein-tyrosine kinase 2-beta (Homo sapiens) (UniProt Q14289)", "assay": "Binding affinity to wild-type human full length PYK2 (M1 to E967 residues) expressed in bacterial expression system assessed as residual binding level at 10 uM by Kinomescan method relative to control"}, "[3]": {"target": "Cyclin-dependent kinase-like 1 (Homo sapiens) (UniProt Q00532)", "sequence (Q00532 whole entry, the tested form may be a part)": "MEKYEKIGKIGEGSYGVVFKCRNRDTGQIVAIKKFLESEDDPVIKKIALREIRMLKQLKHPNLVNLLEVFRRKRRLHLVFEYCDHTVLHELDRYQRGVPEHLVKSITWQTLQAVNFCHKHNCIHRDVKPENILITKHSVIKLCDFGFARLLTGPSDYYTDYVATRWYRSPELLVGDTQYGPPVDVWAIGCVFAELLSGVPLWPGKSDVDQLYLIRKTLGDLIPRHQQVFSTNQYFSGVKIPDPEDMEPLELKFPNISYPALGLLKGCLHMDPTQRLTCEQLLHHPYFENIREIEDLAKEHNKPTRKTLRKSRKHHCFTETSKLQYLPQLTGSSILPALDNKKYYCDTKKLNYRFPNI", "assay": "Binding affinity to wild-type human full length CDKL1 (M1 to I358 residues) expressed in mammalian expression system assessed as residual binding level at 10 uM by Kinomescan method relative to control"}, "[4]": {"tested_on": "Phosphatidylinositol 4,5-bisphosphate 3-kinase catalytic subunit alpha isoform (Homo sapiens), P42336 [I800L]", "sequence (P42336 whole entry I800L, the tested form may be a part, canonical isoform)": "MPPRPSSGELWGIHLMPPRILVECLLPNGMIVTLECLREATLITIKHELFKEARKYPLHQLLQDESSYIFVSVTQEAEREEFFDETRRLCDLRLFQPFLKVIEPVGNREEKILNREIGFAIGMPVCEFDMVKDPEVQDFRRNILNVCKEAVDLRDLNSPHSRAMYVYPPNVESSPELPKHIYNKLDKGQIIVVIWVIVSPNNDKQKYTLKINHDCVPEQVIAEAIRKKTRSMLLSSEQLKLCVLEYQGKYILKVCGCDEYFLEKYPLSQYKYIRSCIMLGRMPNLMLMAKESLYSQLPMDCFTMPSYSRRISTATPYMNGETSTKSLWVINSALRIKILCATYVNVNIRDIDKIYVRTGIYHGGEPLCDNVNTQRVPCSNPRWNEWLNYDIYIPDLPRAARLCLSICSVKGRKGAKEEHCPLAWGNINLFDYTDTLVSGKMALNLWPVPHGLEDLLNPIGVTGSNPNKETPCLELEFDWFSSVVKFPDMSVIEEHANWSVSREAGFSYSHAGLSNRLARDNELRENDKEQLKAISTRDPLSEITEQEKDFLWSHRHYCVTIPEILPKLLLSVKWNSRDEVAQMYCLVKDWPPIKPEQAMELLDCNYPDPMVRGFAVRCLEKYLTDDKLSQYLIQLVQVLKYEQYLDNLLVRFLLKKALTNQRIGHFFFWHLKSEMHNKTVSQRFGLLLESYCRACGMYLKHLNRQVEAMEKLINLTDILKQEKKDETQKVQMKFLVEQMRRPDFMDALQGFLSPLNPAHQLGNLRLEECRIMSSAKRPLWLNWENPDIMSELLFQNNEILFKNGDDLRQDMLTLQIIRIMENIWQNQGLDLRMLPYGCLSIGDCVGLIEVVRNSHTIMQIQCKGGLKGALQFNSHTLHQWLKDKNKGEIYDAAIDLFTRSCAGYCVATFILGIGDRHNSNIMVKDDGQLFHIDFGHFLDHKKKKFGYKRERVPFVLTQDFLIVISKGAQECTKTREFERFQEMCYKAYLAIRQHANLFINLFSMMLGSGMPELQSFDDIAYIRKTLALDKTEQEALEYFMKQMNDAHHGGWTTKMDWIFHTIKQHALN", "assay": "Binding affinity to human partial length PIK3CA I800L mutant (R108 to N1068 residues) expressed in mammalian expression system assessed as residual binding level at 10 uM by Kinomescan method relative to control"}, "[5]": {"target": "Protein-tyrosine kinase 6 (Homo sapiens) (UniProt Q13882)", "sequence (Q13882 whole entry, looked up, the tested form may be a part)": "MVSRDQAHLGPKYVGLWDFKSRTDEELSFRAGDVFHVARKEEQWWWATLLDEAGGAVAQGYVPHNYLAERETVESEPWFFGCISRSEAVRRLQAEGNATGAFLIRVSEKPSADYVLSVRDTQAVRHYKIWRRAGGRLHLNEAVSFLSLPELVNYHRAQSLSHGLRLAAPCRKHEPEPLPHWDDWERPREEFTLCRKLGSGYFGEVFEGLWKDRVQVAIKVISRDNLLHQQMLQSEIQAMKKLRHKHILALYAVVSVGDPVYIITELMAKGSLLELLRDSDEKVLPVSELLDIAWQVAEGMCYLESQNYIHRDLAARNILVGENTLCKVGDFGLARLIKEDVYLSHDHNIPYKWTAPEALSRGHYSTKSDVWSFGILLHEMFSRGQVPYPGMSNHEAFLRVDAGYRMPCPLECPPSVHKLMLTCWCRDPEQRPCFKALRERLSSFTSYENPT", "assay": "Binding affinity to wild-type human partial length BRK (L166 to T451 residues) expressed in bacterial expression system assessed as residual binding level at 10 uM by Kinomescan method relative to control"}, "[6]": {"target": "Casein kinase I isoform alpha-like (Homo sapiens) (UniProt Q8N752)", "assay": "Binding affinity to wild-type human full length CSNK1A1L (M1 to N337 residues) expressed in bacterial expression system assessed as residual binding level at 10 uM by Kinomescan method relative to control"}, "[7]": {"target": "Tyrosine-protein kinase ABL2 (Homo sapiens) (UniProt P42684)", "assay": "Binding affinity to wild-type human ABL2 (A248 to G542 residues) expressed in bacterial expression system assessed as residual binding level at 10 uM by Kinomescan method relative to control"}, "[8]": {"target": "Serine/threonine-protein kinase 16 (Homo sapiens) (UniProt O75716)", "assay": "Binding affinity to wild-type human partial length STK16 (G11 to I305 residues) expressed in bacterial expression system assessed as residual binding level at 10 uM by Kinomescan method relative to control"}, "[9]": {"target": "Rhodopsin kinase GRK1 (Homo sapiens) (UniProt Q15835)", "assay": "Binding affinity to wild-type human full length GRK1 (M1 to S563 residues) expressed in mammalian expression system assessed as residual binding level at 10 uM by Kinomescan method relative to control"}, "[10]": {"target": "Serine/threonine-protein kinase 36 (Homo sapiens) (UniProt Q9NRP7)", "assay": "Binding affinity to wild-type human partial length STK36 (M1 to T271 residues) expressed in bacterial expression system assessed as residual binding level at 10 uM by Kinomescan method relative to control"}, "[11]": {"target": "Tyrosine-protein kinase Fgr (Homo sapiens) (UniProt P09769)", "assay": "Binding affinity to wild-type human partial length FGR (L233 to T529 residues) expressed in bacterial expression system assessed as residual binding level at 10 uM by Kinomescan method relative to control"}, "[12]": {"target": "Serine/threonine-protein kinase 10 (Homo sapiens) (UniProt O94804)", "assay": "Binding affinity to wild-type human partial length LOK (E16 to V314 residues) expressed in bacterial expression system assessed as residual binding level at 10 uM by Kinomescan method relative to control"}, "Neutrophil": {"tested_on": "Neutrophil", "assay": "Inhibition of PMA-induced NETosis in human neutrophils assessed as reduction in lipid peroxidation at 20 uM preincubated for 30 mins followed by PMA stimulation measured after 30 mins by C11-Bodipy fluorescent dye based flow cytometry"}, "[13]": {"target": "Serine/threonine-protein kinase pim-3 (Homo sapiens) (UniProt Q86V86)", "assay": "Binding affinity to wild-type human partial length PIM3 (G16 to A317 residues) expressed in bacterial expression system assessed as residual binding level at 10 uM by Kinomescan method relative to control"}, "[14]": {"target": "Platelet-derived growth factor receptor beta (Homo sapiens) (UniProt P09619)", "sequence (P09619 whole entry, the tested form may be a part)": "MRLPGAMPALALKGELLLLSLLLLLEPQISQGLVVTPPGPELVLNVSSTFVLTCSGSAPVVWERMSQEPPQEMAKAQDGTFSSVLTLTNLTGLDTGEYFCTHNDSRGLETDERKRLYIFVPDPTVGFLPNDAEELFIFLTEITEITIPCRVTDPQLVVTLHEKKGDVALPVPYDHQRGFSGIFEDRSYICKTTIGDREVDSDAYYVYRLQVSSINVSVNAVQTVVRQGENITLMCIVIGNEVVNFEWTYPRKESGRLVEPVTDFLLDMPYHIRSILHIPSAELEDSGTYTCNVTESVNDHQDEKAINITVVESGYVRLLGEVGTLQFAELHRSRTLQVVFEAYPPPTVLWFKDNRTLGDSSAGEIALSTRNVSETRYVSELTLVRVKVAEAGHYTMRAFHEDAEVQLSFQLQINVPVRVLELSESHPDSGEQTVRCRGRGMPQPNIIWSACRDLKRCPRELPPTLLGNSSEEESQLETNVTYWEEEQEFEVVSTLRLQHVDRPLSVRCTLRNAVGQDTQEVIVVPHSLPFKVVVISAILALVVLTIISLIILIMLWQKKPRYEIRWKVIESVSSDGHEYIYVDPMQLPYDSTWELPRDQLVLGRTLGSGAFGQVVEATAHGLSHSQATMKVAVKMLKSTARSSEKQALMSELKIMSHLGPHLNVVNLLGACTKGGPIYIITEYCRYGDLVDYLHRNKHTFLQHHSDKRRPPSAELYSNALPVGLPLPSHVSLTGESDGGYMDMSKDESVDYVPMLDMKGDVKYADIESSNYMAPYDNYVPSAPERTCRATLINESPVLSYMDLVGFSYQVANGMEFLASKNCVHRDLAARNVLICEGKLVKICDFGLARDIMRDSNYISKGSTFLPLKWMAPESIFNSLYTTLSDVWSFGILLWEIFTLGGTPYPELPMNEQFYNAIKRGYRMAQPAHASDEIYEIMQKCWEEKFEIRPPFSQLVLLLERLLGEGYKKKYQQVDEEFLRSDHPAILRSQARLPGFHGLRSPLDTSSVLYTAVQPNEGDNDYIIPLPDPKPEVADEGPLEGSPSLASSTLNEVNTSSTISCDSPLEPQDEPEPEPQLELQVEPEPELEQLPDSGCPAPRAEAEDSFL", "assay": "Binding affinity to wild-type human partial length PDGFRB (V582 to Y1009 residues) expressed in bacterial expression system assessed as residual binding level at 10 uM by Kinomescan method relative to control"}, "[15]": {"target": "Cyclin-dependent kinase-like 3 (Homo sapiens) (UniProt Q8IVW4)", "assay": "Binding affinity to wild-type human partial length CDKL3 (M1 to D327 residues) expressed in bacterial expression system assessed as residual binding level at 10 uM by Kinomescan method relative to control"}, "[16]": {"target": "Serine/threonine-protein kinase PknB (Mycobacterium tuberculosis) (UniProt P9WI81)", "sequence (P9WI81 whole entry, the tested form may be a part)": "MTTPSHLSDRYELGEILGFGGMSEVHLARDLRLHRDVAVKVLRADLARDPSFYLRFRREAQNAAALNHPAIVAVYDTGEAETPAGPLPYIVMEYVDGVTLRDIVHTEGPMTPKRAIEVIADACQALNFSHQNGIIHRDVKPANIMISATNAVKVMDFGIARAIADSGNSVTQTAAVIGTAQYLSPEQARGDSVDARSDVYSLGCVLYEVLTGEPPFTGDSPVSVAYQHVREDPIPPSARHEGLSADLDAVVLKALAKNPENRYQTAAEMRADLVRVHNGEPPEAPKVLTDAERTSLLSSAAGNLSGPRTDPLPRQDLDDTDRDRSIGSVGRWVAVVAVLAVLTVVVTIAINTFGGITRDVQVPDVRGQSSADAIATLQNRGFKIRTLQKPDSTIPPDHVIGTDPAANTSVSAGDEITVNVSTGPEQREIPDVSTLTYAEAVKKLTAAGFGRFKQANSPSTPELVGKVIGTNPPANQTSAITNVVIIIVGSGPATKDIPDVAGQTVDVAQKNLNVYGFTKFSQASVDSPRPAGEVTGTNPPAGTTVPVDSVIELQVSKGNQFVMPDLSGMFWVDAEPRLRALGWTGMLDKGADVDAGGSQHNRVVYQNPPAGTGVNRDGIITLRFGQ", "assay": "Binding affinity to wild-type Mycobacterium tuberculosis partial length PKNB (M1 to G279 residues) expressed in mammalian expression system assessed as residual binding level at 10 uM by Kinomescan method relative to control"}, "[17]": {"tested_on": "Phosphatidylinositol 4,5-bisphosphate 3-kinase catalytic subunit alpha isoform (Homo sapiens), P42336 [C420R]", "sequence (P42336 whole entry C420R, the tested form may be a part, canonical isoform)": "as the sequence (P42336 whole entry I800L, the tested form may be a part, canonical isoform) above, with C420R, L800I counted along it", "assay": "Binding affinity to human partial length PIK3CA C420R mutant (R108 to N1068 residues) expressed in mammalian expression system assessed as residual binding level at 10 uM by Kinomescan method relative to control"}, "[18]": {"target": "Serine/threonine-protein kinase Nek10 (Homo sapiens) (UniProt Q6ZWH5)", "assay": "Binding affinity to wild-type human partial length NEK10 (L488 to R809 residues) expressed in mammalian expression system assessed as residual binding level at 10 uM by Kinomescan method relative to control"}, "[19]": {"target": "Phosphatidylinositol 4,5-bisphosphate 3-kinase catalytic subunit gamma isoform (Homo sapiens) (UniProt P48736)", "assay": "Binding affinity to wild-type human partial length PIK3CG (S144 to A1102 residues) expressed in mammalian expression system assessed as residual binding level at 10 uM by Kinomescan method relative to control"}, "[20]": {"target": "Serine/threonine-protein kinase D1 (Homo sapiens) (UniProt Q15139)", "assay": "Binding affinity to wild-type human partial length PRKD1 (G551 to E870 residues) expressed in bacterial expression system assessed as residual binding level at 10 uM by Kinomescan method relative to control"}, "[21]": {"target": "Serine/threonine-protein kinase tousled-like 1 (Homo sapiens) (UniProt Q9UKI8)", "assay": "Binding affinity to wild-type human partial length TLK1 (K447 to A754 residues) expressed in bacterial expression system assessed as residual binding level at 10 uM by Kinomescan method relative to control"}, "[22]": {"target": "Serine/threonine-protein kinase Sgk3 (Homo sapiens) (UniProt Q96BR1)", "assay": "Binding affinity to wild-type human partial length SGK3 (M119 to L496 residues) expressed in mammalian expression system assessed as residual binding level at 10 uM by Kinomescan method relative to control"}, "[23]": {"target": "Serine/threonine-protein kinase Nek9 (Homo sapiens) (UniProt Q8TD19)", "sequence (Q8TD19 whole entry, the tested form may be a part)": "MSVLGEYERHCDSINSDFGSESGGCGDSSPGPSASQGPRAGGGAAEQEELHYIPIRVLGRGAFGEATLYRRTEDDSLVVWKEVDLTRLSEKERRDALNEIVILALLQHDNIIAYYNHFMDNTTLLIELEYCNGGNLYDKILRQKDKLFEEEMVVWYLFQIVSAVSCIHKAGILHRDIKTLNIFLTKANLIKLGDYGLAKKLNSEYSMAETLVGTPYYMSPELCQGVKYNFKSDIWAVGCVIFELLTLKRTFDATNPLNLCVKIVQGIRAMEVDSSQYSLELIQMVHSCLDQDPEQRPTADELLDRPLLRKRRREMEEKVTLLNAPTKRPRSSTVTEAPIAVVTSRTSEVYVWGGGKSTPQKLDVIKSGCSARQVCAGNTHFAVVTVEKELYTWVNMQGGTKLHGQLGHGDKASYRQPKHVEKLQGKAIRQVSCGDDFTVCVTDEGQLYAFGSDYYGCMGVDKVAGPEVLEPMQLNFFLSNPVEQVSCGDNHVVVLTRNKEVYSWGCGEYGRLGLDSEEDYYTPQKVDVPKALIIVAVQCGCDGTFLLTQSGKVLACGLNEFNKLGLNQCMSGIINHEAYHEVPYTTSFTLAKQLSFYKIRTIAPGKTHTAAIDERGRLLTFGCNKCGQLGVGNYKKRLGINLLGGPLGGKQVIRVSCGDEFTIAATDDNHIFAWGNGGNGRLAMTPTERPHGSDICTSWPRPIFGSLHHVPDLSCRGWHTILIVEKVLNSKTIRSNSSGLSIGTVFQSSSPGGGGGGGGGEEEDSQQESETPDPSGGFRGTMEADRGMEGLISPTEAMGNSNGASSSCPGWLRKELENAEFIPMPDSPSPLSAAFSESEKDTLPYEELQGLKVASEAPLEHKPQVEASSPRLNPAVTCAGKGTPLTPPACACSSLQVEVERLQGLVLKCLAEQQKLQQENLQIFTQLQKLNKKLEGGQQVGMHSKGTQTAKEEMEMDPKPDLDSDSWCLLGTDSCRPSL", "assay": "Binding affinity to wild-type human partial length NEK9 (P32 to R328 residues) expressed in bacterial expression system assessed as residual binding level at 10 uM by Kinomescan method relative to control"}},
  "note": "The source made the active and inactive calls. No cut-off for these calls is given here.",
  "data": [
    {"molecule": "CC(C)N1C(=O)C(NCCCN(C)C)=C(c2cn(C)c3ccccc23)C1=O.Cl", "values": [
      {"measurement": "Activity", "setting": "[1]", "result": 100, "unit": "%"},
      {"measurement": "Activity", "setting": "[2]", "result": 100, "unit": "%"},
      {"measurement": "Activity", "setting": "[3]", "result": 73, "unit": "%"},
      {"measurement": "Activity", "setting": "[4]", "result": 92, "unit": "%"},
      {"measurement": "Activity", "setting": "[5]", "result": 100, "unit": "%"},
      {"measurement": "Activity", "setting": "[6]", "result": 99, "unit": "%"},
      {"measurement": "Activity", "setting": "[7]", "result": 98, "unit": "%"},
      {"measurement": "Activity", "setting": "[8]", "result": 99, "unit": "%"},
      {"measurement": "Activity", "setting": "[9]", "result": 96, "unit": "%"},
      {"measurement": "Activity", "setting": "[10]", "result": 98, "unit": "%"},
      {"measurement": "Activity", "setting": "[11]", "result": 82, "unit": "%"},
      {"measurement": "Activity", "setting": "[12]", "result": 88, "unit": "%"},
      {"measurement": "inhibition", "setting": "Neutrophil", "result": "Active"},
      {"measurement": "Activity", "setting": "[13]", "result": 98, "unit": "%"},
      {"measurement": "Activity", "setting": "[14]", "result": 99, "unit": "%"},
      {"measurement": "Activity", "setting": "[15]", "result": 100, "unit": "%"},
      {"measurement": "Activity", "setting": "[16]", "result": 91, "unit": "%"},
      {"measurement": "Activity", "setting": "[17]", "result": 75, "unit": "%"},
      {"measurement": "Activity", "setting": "[18]", "result": 95, "unit": "%"},
      {"measurement": "Activity", "setting": "[19]", "result": 70, "unit": "%"},
      {"measurement": "Activity", "setting": "[20]", "result": 96, "unit": "%"},
      {"measurement": "Activity", "setting": "[21]", "result": 100, "unit": "%"},
      {"measurement": "Activity", "setting": "[22]", "result": 89, "unit": "%"},
      {"measurement": "Activity", "setting": "[23]", "result": 100, "unit": "%"}
    ]}
  ]
}
